According to patent US6514997B2, “Antipicornaviral compounds and compositions, their pharmaceutical uses, and materials for their synthesis” (Agouron Pharmaceuticals, Inc., priority 1999, dated 2003):
pEC50: −log10 of the molar value. Where two headings read alike, the source gives them in different places.

How the values were obtained:
HRV-14 = assay: Antirhinoviral H1-HeLa cell culture assay (XTT cell protection, EC50), HRV-14; type: cell-based, human rhinovirus (HRV) serotype-14 in H1-HeLa cells
Procedure: (§1) Antirhinoviral H1-HeLa Cell Culture Assay:
(§2) In this cell protection assay, the ability of compounds to protect cells against HRV infection was measured by the XTT dye reduction method, which is described in Weislow et al., J. Natl. Cancer Inst. […] H1-HeLa cells were infected with HRV-14 at a multiplicity of infection (m.o.i.) of 0.13 (virus particles/cell) or mock-infected with medium only. Infected or mock-infected cells were resuspended at 8×10^5 cells per mL, and incubated with appropriate concentrations of the compounds to be tested. Two days later, XTT/PMS was added to test plates and the amount of formazan produced was quantified spectrophotometrically at 450/650 nm. […] The therapeutic index (TI) was calculated by dividing the CC50 value by the EC50 value.
(§3) All strains of human rhinovirus (HRV) for use in this assay were purchased from American Type Culture Collection (ATCC), except for HRV serotype-14 (produced from the infectious cDNA clone constructed by Dr. Robert Rueckert, Institute for Molecular Virology, University of Wisconsin, Madison, Wis.). HRV stocks were propagated and viral assays were performed in H1-HeLa cells (ATCC). Cells were grown in minimal essential medium with 10% fetal bovine serum, available from Life Technologies (Gaithersburg, Md.).

H1-HeLa cells = assay: Cytotoxicity (CC50) in mock-infected H1-HeLa cells, XTT dye reduction; type: cell-based, human
Procedure: as §2, §3
(§4) Coxsackievirus types A-21 (CAV-21) and B3 (CVB3) were purchased from American Type Culture Collection (ATCC, Rockville, Md.). Virus stocks were propagated and antiviral assays were performed in H1-HeLa cells (ATCC). Cells were grown in minimal essential medium with 10% fetal bovine serum (Life Technologies, Gaithersburg, Md.). The ability of the compounds of this invention to protect cells against either CAV-21 or CVB3 infection was measured by the XTT dye reduction method. This method is described in Weislow et al., J. Natl. Cancer Inst. […] H1-HeLa cells were infected with CAV-21 or CVB3 at a multiplicity of infection (m.o.i.) of 0.025 or 0.075, respectively, or mock-infected with medium only. H1-HeLa cells were plated at 4×10^4 cells per well in a 96-well plate and incubated with appropriate concentrations of the test compound. One day (CVB3) or two days (CAV-21) later, XTT/PMS was added to test plates and the amount of formazan produced was quantified spectrophotometrically at 450/650 nm. […] The therapeutic index (TI) was calculated by dividing the CC50 by the EC50.

[1] = tested on: strains of human rhinovirus (HRV); assay: Antirhinoviral H1-HeLa cell culture assay (XTT cell protection, EC50), other HRV strains; type: cell-based, human rhinovirus in H1-HeLa cells; conditions: read-out: EC50
Procedure: as §1
In this cell protection assay, the ability of compounds to protect cells against HRV infection was measured by the XTT dye reduction method, which is described in Weislow et al., J. Natl. Cancer Inst. (1989), vol. 81, 577-586. H1-HeLa cells were infected with HRV-14 at a multiplicity of infection (m.o.i.) of 0.13 (virus particles/cell) or mock-infected with medium only. Infected or mock-infected cells were resuspended at 8×10^5 cells per mL, and incubated with appropriate concentrations of the compounds to be tested. Two days later, XTT/PMS was added to test plates and the amount of formazan produced was quantified spectrophotometrically at 450/650 nm. […] The therapeutic index (TI) was calculated by dividing the CC50 value by the EC50 value.
as §3

[2] = target: T1, Recombinant rhinovirus 3C protease, serotype 14 (Human rhinovirus 14, UniProt P03303); assay: Inhibition of rhinovirus 3C protease (FRET assay, kobs/[I]), serotype 14; type: biochemical; conditions: HRV-14; for kinact/KI: pH 7.6, read-out: kobs/[I] (3C protease inhibition activity)
T1 construct: Recombinant rhinovirus 3C proteases; made in house
T1 sequence (P03303 1538-1719): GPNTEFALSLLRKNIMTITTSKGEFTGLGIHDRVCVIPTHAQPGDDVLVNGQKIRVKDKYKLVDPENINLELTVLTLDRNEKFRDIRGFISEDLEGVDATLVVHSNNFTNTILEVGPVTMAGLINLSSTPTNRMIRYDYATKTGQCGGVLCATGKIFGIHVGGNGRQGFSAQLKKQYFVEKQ
Procedure: Inhibition of Rhinovirus 3C Protease:
Stock solutions (50 mM, in DMSO) of various compounds were prepared; dilutions were in the same solvent. Recombinant rhinovirus 3C proteases (see Birch et al., “Purification of recombinant human rhinovirus 14 3C protease expressed in Escherichia coli,” Protein Expr. Pur. (1995), vol. 6(5), 609-618) from serotypes 14, 16, and 2 were prepared by the following standard chromatographic procedures: (1) ion exchange using Q Sepharose Fast Flow from Pharmacia; (2) affinity chromatography using Affi-Gel Blue from Biorad; and (3) sizing using Sephadex G-100 from Pharmacia. Each assay sample contained 2% DMSO, 50 mM tris pH 7.6, 1 mM EDTA, a test compound at the indicated concentration, approximately 1 μM substrate, and 50-100 nM protease. The kobs/I values were obtained from reactions initiated by addition of enzyme rather than substrate. RVP activity was measured in the fluorescence resonance energy transfer assay. The substrate was (N-terminal) DABCYL-([…]-EDANS. In the uncleaved peptide, the EDANS fluorescence was quenched by the proximal DABCYL moiety. When the peptide was cleaved, the quenching was relieved, and activity was measured as an increase in fluorescence signal. The tabulated data in the column designated kobs/[I] were measured from progress curves in enzyme start experiments.

[3] = Cytotoxicity (CC50) in mock-infected H1-HeLa cells, XTT dye reduction; type: cell-based, human; conditions: human, H1-HeLa cells, mock-infected; line of HRV-14
Procedure: as §2, §3, §4

[4] = Rhinovirus B, HRV14, H1-HeLa, HRV-14, read-out: EC50

Structure (SMILES) | CC50 at 2 days [3] | kinact/KI [2] | pEC50 (HRV-14; [4]) | also measured
Cc1cc(C(=O)Nc2cccn(C(Cc3ccc(F)c(F)c3)C(=O)N[C@H](/C=C/C(=O)OCC(C)(C)C)C[C@@H]3CCNC3=O)c2=O)no1 (relative stereo) [Compound 47, trans-(2′S,3″″″S,4S)-4-[3′-(3″,4″-Difluorophenyl)-2′-(3′″-{[1″″-(5′″″-methylisoxazol-3′″″-yl)methanoyl]amino}-2″″-oxo-2″″H-pyridin-1″″-yl)propanoylamino]-5-(2″″″-oxopyrrolidin-3″″″-yl)pent-2-enoic Acid 2,2-Dimethylpropyl Ester] |  |  |  | pEC50 (HRV-14; HRV-14, read-out: EC50): 7.40; CC50 (H1-HeLa cells; line of HRV-1A): > 10000 nM; CC50 (H1-HeLa cells; line of HRV-2): > 10000 nM; CC50 (H1-HeLa cells; line of HRV-3): > 10000 nM; CC50 (H1-HeLa cells; line of HRV-9): > 10000 nM; CC50 (H1-HeLa cells; line of HRV-10): > 10000 nM; CC50 (H1-HeLa cells; line of HRV-14): > 10000 nM; CC50 (H1-HeLa cells; line of HRV-16): > 10000 nM; CC50 (H1-HeLa cells; line of HRV-25): > 10000 nM; CC50 (H1-HeLa cells; line of HRV-39): > 10000 nM; pEC50 ([1]; HRV-1A): 6.83; pEC50 ([1]; HRV-2): 6.88; pEC50 ([1]; HRV-3): 7.74; pEC50 ([1]; HRV-9): 6.92; pEC50 ([1]; HRV-10): 6.94; pEC50 ([1]; HRV-16): 7.31; pEC50 ([1]; HRV-25): 6.71; pEC50 ([1]; HRV-39): 6.77; kobs/[I] (3C protease inhibition activity) [2]: 1,400,000 M^−1s^−1
CCOC(=O)/C=C/[C@H](C[C@@H]1CCNC1=O)NC(=O)[C@H](Cc1ccccc1)n1ccc2cc[nH]c2c1=O [Compound 3] | > 10000 nM | 2900 M⁻¹ s⁻¹ |  | pEC50 (HRV-14; Rhinovirus B, HRV14, H1-HeLa): 5.90
CCOC(=O)/C=C/[C@H](CCC(N)=O)NC(=O)[C@H](Cc1ccc(F)cc1)n1cccc(NC(=O)OCc2ccccc2)c1=O [Compound 7, trans-(2′S,4S)-4-[2′-(3″-Benzyloxycarbonylamino-2″-oxo-2″H-pyridin-1″-yl)-3′-(4′″-fluorophenyl)propionylamino]-6-carbamoylhex-2-enoic Acid Ethyl Ester] | > 10000 nM | 81000 M⁻¹ s⁻¹ | 7.85 | 
CCOC(=O)/C=C/[C@H](CCC(N)=O)NC(=O)[C@H](Cc1ccccc1)n1cccc(NC(C)=O)c1=O [Compound 8, trans-(2′S,4S)-4-[2′-(3″-Acetylamino-2″-oxo-2″H-pyridin-1″-yl)-3′-phenypropionylamino]-6-carbamoylhex-2-enoic Acid Ethyl Ester] | > 10000 nM | 7660 M⁻¹ s⁻¹ | 6.05 | 
CCOC(=O)/C=C/[C@H](CCC(N)=O)NC(=O)[C@H](Cc1ccccc1)n1cccc(NC(=O)C(C)(C)C)c1=O [Compound 9, trans-(2′S,4S)-6-Carbamoyl-4-{2′-[3″-(2′″,2′″-dimethylpropionylamino)-2″-oxo-2″H-pyridin-1″-yl]-3′-phenylpropionylamino}hex-2-enoic Acid Ethyl Ester] | > 10000 nM | 5040 M⁻¹ s⁻¹ | 6.29 | 
CCOC(=O)/C=C/[C@H](CCC(N)=O)NC(=O)[C@H](Cc1ccc(F)c(F)c1)n1cccc(NC(=O)OCc2ccccc2)c1=O [Compound 11, trans-(2′S,4S)-4-[2′-(3″-Benzyloxycarbonylamino-2″-oxo-2″H-pyridin-1″-yl)-3′-(3′″,4′″-difluorophenyl)propionylamino]-6-carbamoylhex-2-enoic Acid Ethyl Ester] | > 10000 nM | 193000 M⁻¹ s⁻¹ | > 8.49 | 
CCOC(=O)/C=C/[C@H](CCC(N)=O)NC(=O)[C@H](Cc1ccccc1)n1ccc(C)c(NC(=O)OCc2ccccc2)c1=O [Compound 12, trans-(2′S,4S)-4-[2′-(3″-Benzyloxycarbonylamino-4″-methyl-2″-oxo-2″H-pyridin-1″-yl)-3′-phenylpropionylamino]-6-carbamoylhex-2-enoic Acid Ethyl Ester] | > 10000 nM | 25800 M⁻¹ s⁻¹ | 7.12 | 
CCOC(=O)/C=C/[C@H](CCC(N)=O)NC(=O)[C@H](CC1CCCCC1)n1cccc(NC(=O)OCc2ccccc2)c1=O [Compound 15, trans-(2′S,4S)-4-[2′-(3″-Benzyloxycarbonylamino-2″-oxo-2″H-pyridin-1″-yl)-3′-cyclohexylpropionylamino]-6-carbamoyl-hex-2-enoic Acid Ethyl Ester] | > 10000 nM | 6500 M⁻¹ s⁻¹ | 6.75 | 
O=C1OCC/C1=C\[C@H](C[C@@H]1CCNC1=O)NC(=O)[C@H](Cc1ccc(F)cc1)n1cccc(NC(=O)C2CCCC2)c1=O [Compound 16, trans-(2′″S,2′″S,3′″″S)-Cyclopentanecarboxylic acid(1-{2′-(4″-fluorophenyl)-1′-[2′-(2″″-oxo-dihydrofuran-3″″-ylidene)-1-(2′″″-oxopyrrolidin-3′″″-ylmethyl)ethylcarbamoyl]ethyl}-2-oxo-1,2-dihydropyridin-3-yl)amide] | > 10000 nM | 74000 M⁻¹ s⁻¹ | 6.49 | 
CCOC(=O)/C=C/[C@H](CCC(N)=O)NC(=O)Cn1cccc(NC(=O)OCc2ccccc2)c1=O [Compound 17, trans-(4S)-4-[2′-(3″-Benzyloxycarbonylamino-2″-oxo-2″H-pyridin-1″-yl)acetylamino]-6-carbamoylhex-2-enoic Acid Ethyl Ester] | > 10000 nM | 348 M⁻¹ s⁻¹ | < 5.00 | 
CCOC(=O)/C=C/[C@H](CCC(N)=O)NC(=O)[C@H](Cc1ccccc1)n1ccc(C)c(NC(=O)c2cc(C)on2)c1=O [Compound 18, trans-(2′S,4S)-6-Carbamoyl-4-(2′-{4″-methyl-3″-[(5′″-methylisoxazole-3′″-carbonyl)amino]-2″-oxo-2″H-pyridin-1″-yl}-3′-phenylpropionylamino)hex-2-enoic Acid Ethyl Ester] | > 10000 nM | 116000 M⁻¹ s⁻¹ | 6.90 | 
CCOC(=O)/C=C/[C@H](C[C@@H]1CCNC1=O)NC(=O)[C@H](Cc1ccccc1)n1cccc(NC(=O)OCc2ccccc2)c1=O [Compound 19, trans-(2′S,3′″S,4S)-4-[2′-(3″-Benzyloxy-carbonylamino-2″-oxo-2″H-pyridin-1″-yl)-3′-phenylpropionylamino]-5-(2′″-oxopyrrolidin-3′″-yl)pent-2-enoic Acid Ethyl Ester] | > 10000 nM | 380000 M⁻¹ s⁻¹ |  | pEC50 (HRV-14; Rhinovirus B, HRV14, H1-HeLa): 8.52
Cc1cc(C(=O)Nc2cccn([C@@H](Cc3ccc(F)cc3)C(=O)N[C@H](/C=C3\CCOC3=O)C[C@@H]3CCNC3=O)c2=O)no1 [Compound 20, trans-(2″S,2″″S,3″″″S)-5-Methylisoxazole-3-carboxylic Acid (1′-{2″-(4′″-fluorophenyl)-1″-[2″″-(2′″″-oxodihydrofuran-3′″″-ylidene)-1″″-(2″″″oxopyrrolidin-3″″″-ylmethyl)ethylcarbamoyl]ethyl}-2′-oxo-1′,2′-dihydropyridin-3′-yl)amide] | > 10000 nM | 600000 M⁻¹ s⁻¹ | 7.82 | 
